According to article PMC5285354, “Cationic Net Charge and Counter Ion Type as Antimicrobial Activity Determinant Factors of Short Lipopeptides” (Frontiers in Microbiology, 2017):
In brackets after ≈: the same amount, converted by molar mass. Where two headings read alike, the source gives them in different places. Where a SMILES comes first, the peptide text is derived from it. The star is where a group is joined. Decanoyl = CCCCCCCCCC(=O)*

Columns and labels:
Assay type in all cases: cell-based
[1] = system: Aspergillus brasiliensis (ATCC 16404); conditions: ATCC 16404, 48 h
Experimental: (§1) The minimum inhibitory concentration (MIC), minimum bactericidal concentration (MBC) and minimum fungicidal concentration (MFC) were determined according to the procedure recommended by the Clinical Laboratory Standards Institute (CLSI). The following reference strains were tested: Gram-negative E. coli (ATCC 25922), K. pneumoniae (ATCC 700603), P. vulgaris (PCM 2668), P. aeruginosa (ATCC 9027), Gram-positive S. aureus (ATCC 25923), S. epidermidis (PCM 2118), B. subtilis (ATCC 6633), E. faecalis (ATCC 29212) and fungi C. albicans (ATCC 10231), C. tropicalis (PCM 2681), and A. brasiliensis (ATCC 16404). All the microorganisms were from the Polish Collection of Microorganisms (Wroclaw, Poland). MIC was determined using a microbroth dilution method with Mueller-Hinton (MH) broth for bacteria and Sabouraud Dextrose broth for fungi (Becton Dickinson, Le Pont de Claix, France). An initial inoculum of 10^5 cfu/mL was used for bacteria and 10^3 cfu/mL for fungi. Polypropylene 96-well plates (Kartell, Noviglio, Italy) were incubated for 18 h at 37°C for bacteria and for 48 h at 25°C for the tested fungi. MIC (μg/mL) was taken as the lowest concentration of the lipopeptide, at which the observable growth was inhibited. […] The experiments were performed in triplicate on three different days.

[2] = system: Bacillus subtilis (ATCC 6633)
Experimental: as §1

[3] = system: Candida albicans (ATCC 10231)
Experimental: as §1

[4] = system: Candida tropicalis (PCM 2681); conditions: PCM 2681, 48 h
Experimental: as §1

[5] = system: Enterococcus faecalis (ATCC 29212)
Experimental: as §1

[6] = system: Escherichia coli (ATCC 25922)
Experimental: as §1

[7] = system: Klebsiella pneumoniae (ATCC 700603)
Experimental: as §1

[8] = system: Proteus vulgaris (PCM 2668); conditions: PCM 2668, TFA salt, triplicate; for MIC Proteus vulgaris: Mueller-Hinton broth, 10^5 cfu/mL, 18 h 37°C; for MBC Proteus vulgaris: subculture on Mueller-Hinton II Agar, 24 h 37°C
Experimental: as §1

[9] = system: Pseudomonas aeruginosa (ATCC 9027); conditions: for MBC Pseudomonas aeruginosa: subculture on Mueller-Hinton II Agar, 24 h 37°C
Experimental: as §1

[10] = system: Staphylococcus aureus (ATCC 25923)
Experimental: as §1

[11] = system: Staphylococcus epidermidis (PCM 2118)
Experimental: as §1

[12] = system: Pseudomonas aeruginosa (ATCC 9027); conditions: ATCC 9027, 24 h
[13] = ATCC 29212, TFA salt, Mueller-Hinton broth, 10^5 cfu/mL, 18 h 37°C, triplicate
[14] = ATCC 29212, TFA salt, subculture on Mueller-Hinton II Agar, 24 h 37°C, triplicate
[15] = ATCC 25922, TFA salt, Mueller-Hinton broth, 10^5 cfu/mL, 18 h 37°C, triplicate
[16] = ATCC 25922, TFA salt, subculture on Mueller-Hinton II Agar, 24 h 37°C, triplicate
[17] = ATCC 700603, TFA salt, Mueller-Hinton broth, 10^5 cfu/mL, 18 h 37°C, triplicate
[18] = ATCC 700603, TFA salt, subculture on Mueller-Hinton II Agar, 24 h 37°C, triplicate
[19] = ATCC 9027, TFA salt, Mueller-Hinton broth, 10^5 cfu/mL, 18 h 37°C, triplicate
[20] = ATCC 9027, TFA salt, triplicate
[21] = ATCC 25923, TFA salt, MIC wells subcultured on Mueller-Hinton II Agar, 24 h 37°C, triplicate
[22] = ATCC 25923, TFA salt, Mueller-Hinton broth, 10^5 cfu/mL, 18 h 37°C, triplicate on three days
[23] = ATCC 6633, TFA salt, Mueller-Hinton broth, 10^5 cfu/mL, 18 h 37°C, triplicate
[24] = ATCC 6633, TFA salt, subculture on Mueller-Hinton II Agar, 24 h 37°C, triplicate
[25] = PCM 2118, TFA salt, Mueller-Hinton broth, 10^5 cfu/mL, 18 h 37°C, triplicate
[26] = PCM 2118, TFA salt, subculture on Mueller-Hinton II Agar, 24 h 37°C, triplicate

SMILES | MFC Aspergillus brasiliensis [1] [µg/mL] | MIC Aspergillus brasiliensis [1] [µg/mL] | MIC Bacillus subtillis ([2]; ATCC 6633, 18 h) [µg/mL] | MBC Bacillus subtillis ([2]; ATCC 6633, 24 h) [µg/mL] | MFC Candida albicans ([3]; ATCC 10231, 48 h) [µg/mL] | MIC Candida albicans ([3]; ATCC 10231, 48 h) [µg/mL] | MFC Candida tropicalis [4] [µg/mL] | MIC Candida tropicalis [4] [µg/mL] | MIC Proteus vulgaris [8] [µg/mL] | MBC Proteus vulgaris [8] [µg/mL] | MIC Enterococcus fecalis [5, 13] [µg/mL] | MBC Enterococcus fecalis [5, 14] [µg/mL] | MIC Escherichia coli [6, 15] [µg/mL] | MBC Escherichia coli [6, 16] [µg/mL] | MIC Klebsiella pneumoniae [7, 17] [µg/mL] | MBC Klebsiella pneumoniae [7, 18] [µg/mL] | MIC Pseudomonas aeruginosa [9, 19] [µg/mL] | MBC Pseudomonas aeruginosa [9, 20] [µg/mL] | MBC Staphylococcus aureus [10, 21] [µg/mL] | MIC Staphylococcus aureus [10, 22] [µg/mL] | further results
CCCCCCCCCCCC(=O)N[C@@H](CCCCN)C(=O)N[C@@H](CCCCN)C(N)=O [C12-KK-NH2] | 2000 (≈ 4390 µM) | 2000 (≈ 4390 µM) | 64 (≈ 140 µM) | 128 (≈ 281 µM) | 2000 (≈ 4390 µM) | 1000 (≈ 2190 µM) | 2000 (≈ 4390 µM) | 1000 (≈ 2190 µM) | >2000 | >2000 | – | – | – | – | – | – | – | – | – | – | MIC Enterococcus fecalis ([5]; ATCC 29212, 18 h): 512 µg/mL (≈ 1120 µM); MBC Enterococcus fecalis ([5]; ATCC 29212, 24 h): 512 µg/mL (≈ 1120 µM); MIC Escherichia coli ([6]; ATCC 25922, 18 h): 2000 µg/mL (≈ 4390 µM); MBC Escherichia coli ([6]; ATCC 25922, 24 h): 2000 µg/mL (≈ 4390 µM); MIC Klebsiella pneumoniae ([7]; ATCC 700603, 18 h): 2000 µg/mL (≈ 4390 µM); MBC Klebsiella pneumoniae ([7]; ATCC 700603, 24 h): 2000 µg/mL (≈ 4390 µM); MIC Pseudomonas aeruginosa ([9]; ATCC 9027, 18 h): 2000 µg/mL (≈ 4390 µM); MIC Staphylococcus aureus ([10]; ATCC 25923, 18 h): 2000 µg/mL (≈ 4390 µM); MBC Staphylococcus aureus ([10]; ATCC 25923, 24 h): 2000 µg/mL (≈ 4390 µM); MIC Staphylococcus epidermidis ([11]; PCM 2118, 18 h): 64 µg/mL (≈ 140 µM); MBC Staphylococcus epidermidis ([11]; PCM 2118, 24 h): 64 µg/mL (≈ 140 µM); MBC Pseudomonas aeruginosa [12]: 2000 µg/mL (≈ 4390 µM)
CCCCCCCCCC(=O)N[C@@H](CCCCN)C(=O)N[C@@H](CCCCN)C(=O)N[C@@H](CCCCN)C(=O)N[C@@H](CCCCN)C(N)=O [C10-KKKK-NH2] (Decanoyl-KKKK-NH2) | 2000 (≈ 2920 µM) | 2000 (≈ 2920 µM) | 128 (≈ 187 µM) | 128 (≈ 187 µM) | – | – | 2000 (≈ 2920 µM) | 2000 (≈ 2920 µM) | >2000 | >2000 | >2000 | >2000 | >2000 | >2000 | >2000 | >2000 | >2000 | >2000 | >2000 | >2000 | MIC Candida albicans ([3]; ATCC 10231, TFA salt, Sabouraud Dextrose broth, 10^3 cfu/mL, 48 h 25°C, triplicate): >2000 µg/mL; MFC Candida albicans ([3]; ATCC 10231, TFA salt, subculture on Sabouraud 2% Glucose Agar, 48 h 25°C, triplicate): >2000 µg/mL; MIC Staphylococcus epidermidis ([11]; PCM 2118, 18 h): 64 µg/mL (≈ 93.6 µM); MBC Staphylococcus epidermidis ([11]; PCM 2118, 24 h): 128 µg/mL (≈ 187 µM)
CCCCCCCC(=O)N[C@@H](CCCCN)C(=O)N[C@@H](CCCCN)C(N)=O [C8-KK-NH2] | 1000 (≈ 2500 µM) | 1000 (≈ 2500 µM) | – | – | 1000 (≈ 2500 µM) | 1000 (≈ 2500 µM) | 1000 (≈ 2500 µM) | 1000 (≈ 2500 µM) | >2000 | >2000 | >1000 | >1000 | >1000 | >1000 | >1000 | >1000 | >2000 | >2000 | >1000 | >1000 | MIC Bacillus subtillis [2, 23]: >1000 µg/mL; MBC Bacillus subtillis [2, 24]: >1000 µg/mL; MIC Staphylococcus epidermidis [11, 25]: >1000 µg/mL; MBC Staphylococcus epidermidis [11, 26]: >1000 µg/mL
CCCCCCCC(=O)N[C@@H](CCCCN)C(=O)N[C@@H](CCCCN)C(=O)N[C@@H](CCCCN)C(N)=O [C8-KKK-NH2] | 2000 (≈ 3790 µM) | 2000 (≈ 3790 µM) | 1000 (≈ 1890 µM) | 1000 (≈ 1890 µM) | 2000 (≈ 3790 µM) | 2000 (≈ 3790 µM) | 2000 (≈ 3790 µM) | 2000 (≈ 3790 µM) | >2000 | >2000 | >2000 | >2000 | >2000 | >2000 | >2000 | >2000 | >2000 | >2000 | >2000 | >2000 | MIC Staphylococcus epidermidis ([11]; PCM 2118, 18 h): 256 µg/mL (≈ 485 µM); MBC Staphylococcus epidermidis ([11]; PCM 2118, 24 h): 512 µg/mL (≈ 970 µM)
CCCCCCCC(=O)N[C@@H](CCCCN)C(N)=O [C8-K-NH2] | 1000 (≈ 3680 µM) | 1000 (≈ 3680 µM) | – | – | 1000 (≈ 3680 µM) | 1000 (≈ 3680 µM) | 2000 (≈ 7370 µM) | 1000 (≈ 3680 µM) | >2000 | >2000 | >1000 | >1000 | >1000 | >1000 | >1000 | >1000 | >2000 | >2000 | >1000 | >1000 | MIC Bacillus subtillis [2, 23]: >1000 µg/mL; MBC Bacillus subtillis [2, 24]: >1000 µg/mL; MIC Staphylococcus epidermidis [11, 25]: >1000 µg/mL; MBC Staphylococcus epidermidis [11, 26]: >1000 µg/mL
